These results are taken from patent US9073853B2, “Cycloalkane carboxylic acid derivatives as CXCR3 receptor antagonists” (Sanofi, priority 2011, dated 2015).

The target in one assay is human CXCR3-A receptor (Homo sapiens (Human), UniProt P49682). The experiment in a line: 125I-CXCL10 competition radioligand binding assay. The note with it: displacement of 125I-CXCL10 from membranes of CHO cells expressing human recombinant CXCR3-A. The procedure, abridged: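 Membranes from a recombinant cell line expressing human CXCR3-A (10-20 μg protein) were incubated with 125I-CXCL10 and test compound for 60 min at 25° C, then filtered onto PEI-soaked GF/B filters and gamma-counted. IC50 and Hill slope came from four-parameter nonlinear fitting of competition curves.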
Sequence of human CXCR3-A receptor (P49682 whole entry): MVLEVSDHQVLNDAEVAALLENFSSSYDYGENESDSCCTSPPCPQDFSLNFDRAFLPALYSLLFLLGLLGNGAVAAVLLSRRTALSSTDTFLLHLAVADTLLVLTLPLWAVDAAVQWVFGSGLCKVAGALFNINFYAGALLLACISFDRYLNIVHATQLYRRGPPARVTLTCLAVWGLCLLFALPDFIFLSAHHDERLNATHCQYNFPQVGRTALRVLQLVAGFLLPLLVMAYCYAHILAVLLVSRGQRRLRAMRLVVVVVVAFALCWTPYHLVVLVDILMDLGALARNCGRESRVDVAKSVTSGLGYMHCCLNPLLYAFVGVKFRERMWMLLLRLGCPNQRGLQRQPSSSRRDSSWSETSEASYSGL
In the case of `COc1cc(CN([C@H]2C[C@@H](C(=O)O)C2)[C@H](C)c2ccc3c(c2)CCO3)ccc1OCCn1c(=O)ccn(C)c1=O` [Example 122, cis-3-([(R)-1-(2,3-Dihydro-benzofuran-5-yl)-ethyl]-{3-methoxy-4-[2-(3-methyl-2,6-dioxo-3,6-dihydro-2H-pyrimidin-1-yl)-ethoxy]-benzyl}-amino)-cyclobutanecarboxylic acid], the IC50 (commonly the point on the concentration scale where inhibition reaches its midpoint) came to 0.07 µM.
Take `COc1cc(CN([C@H]2C[C@@H](C(=O)O)C2)[C@@H](C)c2ccc3c(c2)CCO3)ccc1OCCn1c(=O)ccn(C)c1=O` [Example 123, cis-3-([(S)-1-(2,3-Dihydro-benzofuran-5-yl)-ethyl]-{3-methoxy-4-[2-(3-methyl-2,6-dioxo-3,6-dihydro-2H-pyrimidin-1-yl)-ethoxy]-benzyl}-amino)-cyclobutanecarboxylic acid]: the IC50 is 7 µM.
As for `Cc1cc(CN(C(C)c2ccc(Cl)c(F)c2)[C@H]2C[C@@H](C(=O)O)C2)ccc1OCCN1C(=O)CCC1=O` (stereo partly drawn) [Example 125, cis-3-([1-(4-Chloro-3-fluoro-phenyl)-ethyl]-{4-[2-(2,5-dioxo-pyrrolidin-1-yl)-ethoxy]-3-methyl-benzyl}-amino)-cyclobutanecarboxylic acid], the IC50 stood at 0.465 µM.
For `COc1cc(CN(C2CC(C(=O)O)C2)C2CCc3cc(Cl)ccc32)ccc1OCCN1C(=O)CCC1=O` (centres unmarked) [Example 127, 3-((5-Chloro-indan-1-yl)-{4-[2-(2,5-dioxo-pyrrolidin-1-yl)-ethoxy]-3-methoxy-benzyl}-amino)-cyclobutanecarboxylic acid], the IC50 turned out to be 1.09 µM.
Same read-out and setting: to `Cc1cc([C@@H](C)N(Cc2ccc(OCCN3C(=O)CCC3=O)c(C)c2)[C@H]2C[C@@H](C(=O)O)C2)ccc1Cl` [Example 129, cis-3-([(R)-1-(4-Chloro-3-methyl-phenyl)-ethyl]-{4-[2-(2,5-dioxo-pyrrolidin-1-yl)-ethoxy]-3-methyl-benzyl}-amino)-cyclobutanecarboxylic acid] belongs 0.105 µM; to `Cc1cc([C@H](C)N(Cc2ccc(OCCN3C(=O)CCC3=O)c(C)c2)[C@H]2C[C@H](C(=O)O)C2)ccc1Cl` [Example 130], 5.3 µM.
On to `Cc1cc([C@H](C)N(Cc2ccc(OCCN3C(=O)CCC3=O)c(C)c2)[C@H]2C[C@@H](C(=O)O)C2)ccc1Cl` [Example 131, cis-3-([(S)-1-(4-Chloro-3-methyl-phenyl)-ethyl]-{4-[2-(2,5-dioxo-pyrrolidin-1-yl)-ethoxy]-3-methyl-benzyl}-amino)-cyclobutanecarboxylic acid], for which the IC50 is 6.5 µM.
Same read-out and setting: the result for `Cc1cc(CN([C@H]2C[C@@H](C(=O)O)C2)[C@H](C)c2ccc(Cl)cc2)ccc1OCCN1C(=O)CCC1=O` [Example 132, cis-3-([(R)-1-(4-Chloro-phenyl)-ethyl]-{4-[2-(2,5-dioxo-pyrrolidin-1-yl)-ethoxy]-3-methyl-benzyl}-amino)-cyclobutanecarboxylic acid] reads 0.17 µM.
Regarding `Cc1cc(CN(C2CCc3cc(Cl)ccc32)[C@H]2C[C@@H](C(=O)O)C2)ccc1OCCN1C(=O)CCC1=O` (stereo partly drawn) [Example 133, cis-3-((5-Chloro-indan-1-yl)-{4-[2-(2,5-dioxo-pyrrolidin-1-yl)-ethoxy]-3-methyl-benzyl}-amino)-cyclobutanecarboxylic acid], the IC50 came out at 1.64 µM.
As to `Cc1cc(CN(C(C)c2ccc3c(c2)CCO3)[C@H]2C[C@@H](C(=O)O)C2)ccc1OCCn1c(=O)ccn(C)c1=O` (stereo partly drawn) [Example 134, cis-3-([1-(2,3-Dihydro-benzofuran-5-yl)-ethyl]-{3-methyl-4-[2-(3-methyl-2,6-dioxo-3,6-dihydro-2H-pyrimidin-1-yl)-ethoxy]-benzyl}-amino)-cyclobutanecarboxylic acid], the IC50 came to 0.24 µM.
On to `Cc1cc(CN([C@H]2C[C@@H](C(=O)O)C2)[C@H](C)c2ccc(Cl)cc2)ccc1OCCn1c(=O)ccn(C)c1=O` [Example 136, cis-3-([(R)-1-(4-Chloro-phenyl)-ethyl]-{3-methyl-4-[2-(3-methyl-2,6-dioxo-3,6-dihydro-2H-pyrimidin-1-yl)-ethoxy]-benzyl}-amino)-cyclobutanecarboxylic acid], for which the IC50 was determined as 0.347 µM.
For the molecule `COc1cc(CN(C(C)c2ccc(Cl)c(Cl)c2)[C@H]2C[C@@H](C(=O)O)C2)ccc1OCCN1C(=O)CCC1=O` (stereo partly drawn) [Example 137, cis-3-([1-(3,4-Dichloro-phenyl)-ethyl]-{4-[2-(2,5-dioxo-pyrrolidin-1-yl)-ethoxy]-3-methoxy-benzyl}-amino)-cyclobutanecarboxylic acid], the concentration for half-maximal inhibition (IC50) was 0.104 µM.
As for `Cc1cc(CN(C(C)c2ccc(Cl)c(Cl)c2)[C@H]2C[C@@H](C(=O)O)C2)ccc1OCCN1C(=O)CCC1=O` (stereo partly drawn) [Example 138, cis-3-([1-(3,4-Dichloro-phenyl)-ethyl]-{4-[2-(2,5-dioxo-pyrrolidin-1-yl)-ethoxy]-3-methyl-benzyl}-amino)-cyclobutanecarboxylic acid], the IC50 was 0.67 µM.
Consider `CCc1cc(CN(C(C)c2ccc(Cl)c(Cl)c2)[C@H]2C[C@@H](C(=O)O)C2)ccc1OCCN1C(=O)CCC1=O` (stereo partly drawn) [Example 139, cis-3-([1-(3,4-Dichloro-phenyl)-ethyl]-{4-[2-(2,5-dioxo-pyrrolidin-1-yl)-ethoxy]-3-ethyl-benzyl}-amino)-cyclobutanecarboxylic acid], for which the IC50 amounted to 1.2 µM.
`CCc1cc(CN(C(C)c2ccc(Cl)c(F)c2)[C@H]2C[C@@H](C(=O)O)C2)ccc1OCCN1C(=O)CCC1=O` (stereo partly drawn) [Example 140, cis-3-([1-(4-Chloro-3-fluoro-phenyl)-ethyl]-{4-[2-(2,5-dioxo-pyrrolidin-1-yl)-ethoxy]-3-ethyl-benzyl}-amino)-cyclobutanecarboxylic acid]: the IC50 was found to be 0.26 µM.
Turning to `CCC(c1ccc(Cl)c(Cl)c1)N(Cc1ccc(OCCN2C(=O)CCC2=O)c(OC)c1)[C@H]1C[C@@H](C(=O)O)C1` (stereo partly drawn) [Example 141, cis-3-([1-(3,4-Dichloro-phenyl)-propyl]-{4-[2-(2,5-dioxo-pyrrolidin-1-yl)-ethoxy]-3-methoxy-benzyl}-amino)-cyclobutanecarboxylic acid], the IC50 was determined as 0.2 µM.
In the case of `COc1cc(CN(C(C)c2ccc(Cl)c(F)c2)[C@H]2C[C@@H](C(=O)O)C2)ccc1OCCN1C(=O)CCC1=O` (stereo partly drawn) [Example 142, cis-3-([1-(4-Chloro-3-fluoro-phenyl)-ethyl]-{4-[2-(2,5-dioxo-pyrrolidin-1-yl)-ethoxy]-3-methoxy-benzyl}-amino)-cyclobutanecarboxylic acid], the IC50 amounted to 0.12 µM.
Regarding `Cc1cc(CN([C@H]2C[C@@H](C(=O)O)C2)[C@H](C)c2ccc(Cl)cc2)ccc1CCCN1C(=O)CCC1=O` [Example 143, cis-3-([(R)-1-(4-Chloro-phenyl)-ethyl]-{4-[3-(2,5-dioxo-pyrrolidin-1-yl)-propyl]-3-methyl-benzyl}-amino)-cyclobutanecarboxylic acid], the IC50 is 3 µM.
On to `COc1cc(CN(C[C@H]2CC[C@H](C(=O)O)CC2)C(C)c2ccc3c(c2)CCC3)ccc1OCCN1C(=O)CCC1=O` (stereo partly drawn) [Example 144, trans-4-{[{4-[2-(2,5-Dioxo-pyrrolidin-1-yl)-ethoxy]-3-methoxy-benzyl}-(1-indan-5-yl-ethyl)-amino]-methyl}-cyclohexanecarboxylic acid], for which the IC50 stood at 0.167 µM.
Take `COc1cc(CN(C[C@H]2CC[C@H](C(=O)O)CC2)C(C)c2ccc3c(c2)CCC3)ccc1OCCN1C(=O)CN(C)C1=O` (stereo partly drawn) [Example 145, trans-4-[((1-Indan-5-yl-ethyl)-{3-methoxy-4-[2-(3-methyl-2,5-dioxo-imidazolidin-1-yl)-ethoxy]-benzyl}-amino)-methyl]-cyclohexanecarboxylic acid]: the IC50 turned out to be 0.146 µM.
Same read-out and setting: the result for `COc1cc(CN(C[C@H]2CC[C@H](C(=O)O)CC2)[C@H]2CCc3cc(Cl)ccc32)ccc1OCCN1C(=O)C2CC2C1=O` (stereo partly drawn) [Example 146, -4-[(((S)-5-Chloro-indan-1-yl)-{4-[2-(2,4-dioxo-3-aza-bicyclo[3.1.0]hex-3-yl)-ethoxy]-3-methoxy-benzyl}-amino)-methyl]-cyclohexanecarboxylic acid] reads 0.254 µM.
For the molecule `COc1cc(CN(C[C@H]2CC[C@H](C(=O)O)CC2)[C@H]2CCc3cc(Cl)ccc32)ccc1OCCN1C(=O)CC2(CCCC2)CC1=O` [Example 147, 4-[(((S)-5-Chloro-indan-1-yl)-{4-[2-(7,9-dioxo-8-aza-spiro[4.5]dec-8-yl)-ethoxy]-3-methoxy-benzyl}-amino)-methyl]-cyclohexanecarboxylic acid], the IC50 stood at 7 µM.
Regarding `COc1cc(CN(C[C@H]2CC[C@H](C(=O)O)CC2)[C@H]2CCc3c2ccc(Cl)c3F)ccc1OCCN1C(=O)CCC1=O` [Example 148, trans-4-[(((S)-5-Chloro-4-fluoro-indan-1-yl)-{4-[2-(2,5-dioxo-pyrrolidin-1-yl)-ethoxy]-3-methoxy-benzyl}-amino)-methyl]-cyclohexanecarboxylic acid], the IC50 was determined as 0.026 µM.
For `CCc1cc(CN(C[C@H]2CC[C@H](C(=O)O)CC2)[C@H]2CCc3c2ccc(Cl)c3F)ccc1OCCN1C(=O)CCC1=O` [Example 149, trans-4-[(((S)-5-Chloro-4-fluoro-indan-1-yl)-{4-[2-(2,5-dioxo-pyrrolidin-1-yl)-ethoxy]-3-ethyl-benzyl}-amino)-methyl]-cyclohexanecarboxylic acid], the IC50 turned out to be 0.165 µM.

Staying with this assay, now noted: read-out: % at 10 μM; at 10 μM; displacement of 125I-CXCL10.
As to `Cc1cc(CN(C(C)c2ccc(Cl)c(F)c2)[C@H]2C[C@H](C(=O)O)C2)ccc1OCCN1C(=O)CCC1=O` (stereo partly drawn) [Example 124, trans-3-([1-(4-Chloro-3-fluoro-phenyl)-ethyl]-{4-[2-(2,5-dioxo-pyrrolidin-1-yl)-ethoxy]-3-methyl-benzyl}-amino)-cyclobutanecarboxylic acid], the inhibition at 10 µM worked out at 24%.
With `Cc1cc([C@@H](C)N(Cc2ccc(OCCN3C(=O)CCC3=O)c(C)c2)[C@H]2C[C@H](C(=O)O)C2)ccc1Cl` [Example 128, trans-3-([(R)-1-(4-Chloro-3-methyl-phenyl)-ethyl]-{4-[2-(2,5-dioxo-pyrrolidin-1-yl)-ethoxy]-3-methyl-benzyl}-amino)-cyclobutanecarboxylic acid], the inhibition at 10 µM was found to be 37%.
